Test results published in patent publication US20240350440A1, “EXTRACTION OF ABSCISIC ACID FROM STRAWBERRIES” (KING FAISAL UNIVERSITY, priority 2023, published 2024).
Marks after values point to notes of the source that are not given here.

Columns and labels:
Type in all cases: in vivo
[1] = system: albino rat after inducing myocardial infarction disease; assay: Oxidative stress markers and antioxidant enzymes in adrenaline-induced myocardial infarction; details: MI induced by high dose of adrenaline
Protocol: (§1) The extracted and purified ABA was tested on an albino rat after inducing myocardial infarction disease by using a high dose of adrenaline at Alexandria faculty of medicine and all tests of examination were performed (chemical, electrocardiograph Histological).

[2] = system: albino rat after inducing myocardial infarction disease; assay: Biological cardiac markers in adrenaline-induced myocardial infarction; details: MI induced by high dose of adrenaline
Protocol: as §1

[3] = system: albino rat after inducing myocardial infarction disease; assay: Electrocardiogram assessment in adrenaline-induced myocardial infarction; details: MI induced by high dose of adrenaline
Protocol: as §1

[4] = system: albino rat after inducing myocardial infarction disease; assay: Histopathological assessment of H&E-stained heart tissue; design: key: grade 1 (normal histological the appearance of the myocardium); grade 2 (focal necrosis of myocardium); grade 3 (focal necrosis of myocardial fiber with neutrophil infiltration and interstitial edema); grade 4 (extensive necrosis of myocardial fiber with hemorrhage, interstitial edema, marked neutrophil infiltration and severe myofibrillary degeneration); details: MI rat
Protocol: as §1
With reference to the Figures, the histopathological assessment of H&E-stained (hematoxylin and eosin stained) heart tissue was scored according to severity of myocardial changes: grade 1 (normal histological the appearance of the myocardium), grade 2 (focal necrosis of myocardium), grade 3 (focal necrosis of myocardial fiber with neutrophil infiltration and interstitial edema), and grade 4 (extensive necrosis of myocardial fiber with hemorrhage, interstitial edema, marked neutrophil infiltration and severe myofibrillary degeneration).

## CC1=CC(=O)CC(C)(C)C1(O)/C=C/C(C)=C\C(=O)O (centres unmarked) [Extracted ABA, abscisic acid]
[1]
  Catalase: 97 ± 1.73^bc U/g protein
  GSH: 21.66 ± 0.39^a μmol/g protein
  MDA: 5.68 ± 0.27^bcd μmol/g protein
  NO: 47.78 ± 4.49^bc μM/g protein
[2]
  CK-MB: 1.14 ± 0.02^bc U/L
  LDH: 482.67 ± 4.63^bc U/L
  Troponin: 1.71 ± 0.02^b ng/ml
[3]
  COP (mean ml/min): 18.57 ± 1.04^b ml/min
  HR (mean b/min): 247.4 ± 9.69^cd b/min
  RR (interval/sec): 0.73 ± 0.034^b sec
  ST height: 42.98 ± 4.05^b mm
  carotid flow mean: 18.06 ± 1.15^b ml/min
[4]
  histopathological score, severity of myocardial changes: grade 3

## CC1=CC(=O)CC(C)(C)[C@@]1(O)/C=C/C(C)=C\C(=O)O [Standard ABA, abscisic acid]
[1]
  Catalase: 112 ± 23.09^abc U/g protein
  GSH: 20.01 ± 2.27^a μmol/g protein
  MDA: 6.13 ± 1.34^bc μmol/g protein
  NO: 48.61 ± 5.61^bc μM/g protein
[2]
  CK-MB: 1.22 ± 0.03^b U/L
  LDH: 587.33 ± 30.12^b U/L
  Troponin: 1.72 ± 0.05^b ng/ml
[3]
  COP (mean ml/min): 17.52 ± 0.1^b ml/min
  HR (mean b/min): 255.77 ± 1.23^bc b/min
  RR (interval/sec): 0.7 ± 0.003^c sec
  ST height: 39.33 ± 2.15^b mm
  carotid flow mean: 17.4 ± 0.16^b ml/min
[4]
  histopathological score, severity of myocardial changes: grade 3
